US20100056520A1, “FORMULATIONS OF PHOSPHOLIPASE ENZYME INHIBITORS” (priority 2006, published 2010)
Values after ≈ are worked out from the molar mass of the structure shown.

Experiments:
ApoE Mice = assay: Minimum efficacious exposure in ApoE mice; assay type: in vivo
[1] = Rat oral absorption/bioavailability after single oral dose of 25 mg/kg; assay type: in vivo, rats; conditions: for oral exposure with addition of 2% Tween 80: 2% Tween 80/0.5% MC vehicle; for bioavailability: rat, in vivo, rats, read-out: estimated bioavailability; for bioavailability / oral absorption in rats: single oral dose of 25 mg/kg in 2% Tween/0.5% MC
From the text: (§1) Based on the animal data and solubility in pharmaceutical acceptable excipients, formulation development for first in human studies was undertaken based on this formulation.

[2] = Solubility in 2% Tween 80/0.5% methylcellulose vehicle; assay type: physicochemical; conditions: for solubility: 2% Tween 80/0.5% methylcellulose vehicle, aqueous with cosolvent or surfactant or cyclodextrin, read-out: solubility in 2% Tween 80/0.5% methylcellulose (MC) vehicle
From the text: as §1

[3] = Solubility measured at room temperature in water, acid and basic conditions (HPLC); assay type: physicochemical
Method: The solubility of 4-(3-{5-chloro-1-(diphenylmethyl)-2-[2-({[2-(trifluoromethyl)benzyl]sulfonyl}amino)ethyl]-1H-indol-3-yl}propyl)benzoic acid was measured at room temperature in water, acid and basic conditions.
The solubility of 4-(3-{5-chloro-1-(diphenylmethyl)-2-[2-({[2-(trifluoromethoxy)benzyl]sulfonyl}amino)ethyl]-1H-indol-3-yl}propyl)benzoic acid was measured at room temperature in water, acid and basic conditions.
The solubility of 4-(3-{5-chloro-1-(diphenylmethyl)-2-[2-({[2-fluoro-6-(trifluoromethyl)benzyl]sulfonyl}amino)ethyl]-1H-indol-3-yl}propyl)benzoic acid was measured at room temperature in water, acid and basic conditions.

[4] = tested on: carrageenan-induced paw edema; assay: Rat carrageenan-induced paw edema (CPE) study; assay type: in vivo
Method: Data from a rat carrageenan-induced paw edema (CPE) study indicated the minimum efficacious exposure of 4-(3-{5-chloro-1-(diphenylmethyl)-2-[2-({[2-(trifluoromethyl)benzyl]sulfonyl}amino)ethyl]-1H-indol-3-yl}propyl)benzoic acid was 1360 ng*hr/ml.

| oral exposure with addition of 2% Tween 80 [1] | bioavailability [1] [%] | oral absorption in rats [1] | solubility enhancement by addition of 2% Tween 80 [2] [fold] | solubility in 2% Tween 80/0.5% methylcellulose (MC) vehicle [2] [µg/mL] | solubility [2] [µg/mL] | solubility ([3]; water, acid and basic conditions, water, acid and basic conditions, below the HPLC detection limit, read-out: intrinsic solubility in all conditions) [µg/mL] | solubility ([3]; aqueous solution (water, acid and basic conditions), aqueous buffer, below the HPLC detection limit, read-out: intrinsic solubility of the free acid) [µg/mL] | solubility ([3]; aqueous solution (water, acid and basic conditions), aqueous buffer, read-out: solubility of the anion) [µg/mL] | solubility ([3]; water, acid and basic conditions, aqueous buffer, below the HPLC detection limit, read-out: intrinsic solubility over the pH range of 1 to 11) [µg/mL] | Compound | minimum efficacious exposure (ApoE Mice) [ng·h/mL] | minimum efficacious exposure [4] [ng·h/mL] |
| --- | --- | --- | --- | --- | --- | --- | --- | --- | --- | --- | --- | --- |
| did not afford adequate oral exposure | ~1.8 | relatively low | 23.490 | 498 (≈ 654 µM) | 496 (≈ 652 µM) | < 0.0212 | – | – | – | O=C(O)c1ccc(CCCc2c(CCNS(=O)(=O)Cc3ccccc3OC(F)(F)F)n(C(c3ccccc3)c3ccccc3)c3ccc(Cl)cc23)cc1 [4-(3-{5-chloro-1-(diphenylmethyl)-2-[2-({[2-(trifluoromethoxy)benzyl]sulfonyl}amino)ethyl]-1H-indol-3-yl}propyl)benzoic acid] | 2800 | – |
| – | – | – | – | – | – | – | < 0.031 | 0.11 (≈ 0.148 µM) | – | O=C(O)c1ccc(CCCc2c(CCNS(=O)(=O)Cc3ccccc3C(F)(F)F)n(C(c3ccccc3)c3ccccc3)c3ccc(Cl)cc23)cc1 [4-(3-{5-chloro-1-(diphenylmethyl)-2-[2-({[2-(trifluoromethyl)benzyl]sulfonyl}amino)ethyl]-1H-indol-3-yl}propyl)benzoic acid] | – | 1360 |
| did not afford adequate oral exposure | < 1 | relatively low | – | – | 115 (≈ 151 µM) | – | – | – | < 0.1 | O=C(O)c1ccc(CCCc2c(CCNS(=O)(=O)Cc3c(F)cccc3C(F)(F)F)n(C(c3ccccc3)c3ccccc3)c3ccc(Cl)cc23)cc1 [4-(3-{5-chloro-1-(diphenylmethyl)-2-[2-({[2-fluoro-6-(trifluoromethyl)benzyl]sulfonyl}amino)ethyl]-1H-indol-3-yl}propyl)benzoic acid] | – | – |
